Source: patent publication US10501460B2, “Heterocyclic compounds and uses thereof” (Plexxikon Inc., priority 2013, dated 2019)

What was measured:
bromodomain = assay: Bromodomain cell assays of Example 40 (at least one of them); assay type: cell-based; conditions: in at least one of the bromodomain cell assays described in Example 40
Procedure, shortened: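 Growth inhibition: 3000 MV-4-11, MOLM-13, MM.1S or neuroblastoma cells/well got an 8-point 1:3 series from 10 μM top (0.2% DMSO) for 72 h, then CellTiter-Glo luminescence. Myc reporter: MV-4-11 with E-box firefly luciferase, 24 h exposure, One-Glo luminescence plus CellTiter-Fluo cell count. pIC50 from four-parameter fit.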

MV-4-11 = assay: Oncology cell growth assay MV-4-11 (CellTiter Glo, 72 hours); assay type: cell-based; conditions: Homo sapiens, MV4-11, 72 h; MV-4-11 cell growth inhibitory activity, 3d
Procedure, shortened: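 MV-4-11 cells (MLL-AF4 AML) exposed 72 h to 8-point 1:3 titration, top final 10 μM, 0.2% DMSO. CellTiter Glo luminescence as cell-number readout, normalized to DMSO controls; pIC50 from four-parameter fit.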

## Cc1noc(C)c1-c1cnc2c(-c3cnn(C4CCCCO4)c3)cn(S(=O)(=O)c3ccccc3)c2c1 (centres unmarked) [P-0168, 4-[1-(benzenesulfonyl)-3-(1-tetrahydropyran-2-ylpyrazol-4-yl)pyrrolo[3,2-b]pyridin-6-yl]-3,5-dimethyl-isoxazole]
bromodomain
  IC50: < 10 µM
MV-4-11
  IC50: ≤ 1 µM

## Cc1nc(Cn2cc(-c3cnn(C)c3)c3ncc(-c4c(C)noc4C)cc32)cs1 [P-0170, 3,5-dimethyl-4-[3-(1-methylpyrazol-4-yl)-1-[(2-methylthiazol-4-yl)methyl]pyrrolo[3,2-b]pyridin-6-yl]isoxazole]
bromodomain
  IC50: < 10 µM
MV-4-11
  IC50: ≤ 1 µM

## Cc1noc(C)c1-c1cnc2c(-c3cnn(C)c3)cn(Cc3cscn3)c2c1 [P-0171, 3,5-dimethyl-4-[3-(1-methylpyrazol-4-yl)-1-(thiazol-4-ylmethyl)pyrrolo[3,2-b]pyridin-6-yl]isoxazole]
bromodomain
  IC50: < 10 µM
MV-4-11
  IC50: ≤ 1 µM

## Cc1noc(C)c1-c1cnc2c(-c3cnn(C)c3)cn(Cc3ccccc3F)c2c1 [P-0172, 4-[1-[(2-fluorophenyl)methyl]-3-(1-methylpyrazol-4-yl)pyrrolo[3,2-b]pyridin-6-yl]-3,5-dimethyl-isoxazole]
bromodomain
  IC50: < 10 µM
MV-4-11
  IC50: ≤ 1 µM

## Cc1noc(C)c1-c1cnc2c(-c3cnn(C)c3)cn(Cc3c(F)cccc3F)c2c1 [P-0173, 4-[1-[(2,6-difluorophenyl)methyl]-3-(1-methylpyrazol-4-yl)pyrrolo[3,2-b]pyridin-6-yl]-3,5-dimethyl-isoxazole]
bromodomain
  IC50: < 10 µM
MV-4-11
  IC50: ≤ 1 µM

## Cc1noc(C)c1-c1cnc2c(-c3cnn(C(F)F)c3)cn(Cc3ccccc3F)c2c1 [P-0176, 4-[3-[1-(difluoromethyl)pyrazol-4-yl]-1-[(2-fluorophenyl)methyl]pyrrolo[3,2-b]pyridin-6-yl]-3,5-dimethyl-isoxazole]
bromodomain
  IC50: < 10 µM
MV-4-11
  IC50: ≤ 1 µM

## Cc1noc(C)c1-c1cnc2c(c1)c(S(=O)(=O)c1ccccc1)cn2-c1cnn(C)c1 [P-0185, 4-[3-(benzenesulfonyl)-1-(1-methylpyrazol-4-yl)pyrrolo[2,3-b]pyridin-5-yl]-3,5-dimethyl-isoxazole]
bromodomain
  IC50: < 10 µM
MV-4-11
  IC50: ≤ 1 µM

## CCOC(=O)C(c1ccccc1)n1cc(-c2cnn(C)c2)c2ncc(-c3c(C)noc3C)cc21 (centres unmarked) [P-0186, ethyl 2-[6-(3,5-dimethylisoxazol-4-yl)-3-(1-methylpyrazol-4-yl)pyrrolo[3,2-b]pyridin-1-yl]-2-phenyl-acetate]
bromodomain
  IC50: < 10 µM
MV-4-11
  IC50: ≤ 1 µM

## Cc1noc(C)c1-c1cnc2c(-c3cnn(C)c3)cn(C(CF)c3ccccc3)c2c1 (centres unmarked) [P-0187, 4-[1-(2-fluoro-1-phenyl-ethyl)-3-(1-methylpyrazol-4-yl)pyrrolo[3,2-b]pyridin-6-yl]-3,5-dimethyl-isoxazole]
bromodomain
  IC50: < 10 µM
MV-4-11
  IC50: ≤ 1 µM

## Cc1noc(C)c1-c1cnc2c(-c3cnn(C)c3)cn(Cc3ccccc3C(F)(F)F)c2c1 [P-0188, 3,5-dimethyl-4-[3-(1-methylpyrazol-4-yl)-1-[[2-(trifluoromethyl)phenyl]methyl]pyrrolo[3,2-b]pyridin-6-yl]isoxazole]
bromodomain
  IC50: < 10 µM
MV-4-11
  IC50: ≤ 1 µM

## Cc1noc(C)c1-c1cnc2c(-c3cnn(C)c3)cn(Cc3c(Cl)cccc3Cl)c2c1 [P-0189, 4-[1-[(2,6-dichlorophenyl)methyl]-3-(1-methylpyrazol-4-yl)pyrrolo[3,2-b]pyridin-6-yl]-3,5-dimethyl-isoxazole]
bromodomain
  IC50: < 10 µM
MV-4-11
  IC50: ≤ 1 µM

## Cc1noc(C)c1-c1cnc2c(-c3cnn(C)c3)cn(Cc3cc(F)ccc3Cl)c2c1 [P-0190, 4-[1-[(2-chloro-5-fluoro-phenyl)methyl]-3-(1-methylpyrazol-4-yl)pyrrolo[3,2-b]pyridin-6-yl]-3,5-dimethyl-isoxazole]
bromodomain
  IC50: < 10 µM
MV-4-11
  IC50: ≤ 1 µM

## Cc1noc(C)c1-c1cnc2c(-c3cnn(C)c3)cn(C(CO)c3ccccc3)c2c1 (centres unmarked) [P-0192, 2-[6-(3,5-dimethylisoxazol-4-yl)-3-(1-methylpyrazol-4-yl)pyrrolo[3,2-b]pyridin-1-yl]-2-phenyl-ethanol]
bromodomain
  IC50: < 10 µM
MV-4-11
  IC50: ≤ 1 µM

## Cc1noc(C)c1-c1cnc2c(-c3cnn(C)c3)cn(Cc3ccccc3Cl)c2c1 [P-0193, 4-[1-[(2-chlorophenyl)methyl]-3-(1-methylpyrazol-4-yl)pyrrolo[3,2-b]pyridin-6-yl]-3,5-dimethyl-isoxazole]
bromodomain
  IC50: < 10 µM
MV-4-11
  IC50: ≤ 1 µM

## Cc1noc(C)c1-c1cnc2c(-c3cnn(C)c3)cn(Cc3ccccc3OC(F)(F)F)c2c1 [P-0194, 3,5-dimethyl-4-[3-(1-methylpyrazol-4-yl)-1-[[2-(trifluoromethoxy)phenyl]methyl]pyrrolo[3,2-b]pyridin-6-yl]isoxazole]
bromodomain
  IC50: < 10 µM
MV-4-11
  IC50: ≤ 1 µM

## Cc1noc(C)c1-c1cnc2c(-c3cnn(C)c3)cn(Cc3cccnc3)c2c1 [P-0195, 3,5-dimethyl-4-[3-(1-methylpyrazol-4-yl)-1-(3-pyridylmethyl)pyrrolo[3,2-b]pyridin-6-yl]isoxazole]
bromodomain
  IC50: < 10 µM
MV-4-11
  IC50: ≤ 1 µM

## Cc1noc(C)c1-c1cnc2ccn(C(CC#N)C3CCCC3)c2c1 (centres unmarked) [P-0196, 3-cyclopentyl-3-[6-(3,5-dimethylisoxazol-4-yl)pyrrolo[3,2-b]pyridin-1-yl]propanenitrile]
bromodomain
  IC50: < 10 µM
MV-4-11
  IC50: ≤ 1 µM

## Cc1noc(C)c1-c1cnc2c(-c3cnn(C)c3)cn(C(CC#N)C3CCCC3)c2c1 (centres unmarked) [P-0197, 3-cyclopentyl-3-[6-(3,5-dimethylisoxazol-4-yl)-3-(1-methylpyrazol-4-yl)pyrrolo[3,2-b]pyridin-1-yl]propanenitrile]
bromodomain
  IC50: < 10 µM
MV-4-11
  IC50: ≤ 1 µM

## Cc1noc(C)c1-c1cnc2c(-c3cnn(C)c3)cn(Cc3ccccn3)c2c1 [P-0198, 3,5-dimethyl-4-[3-(1-methylpyrazol-4-yl)-1-(2-pyridylmethyl)pyrrolo[3,2-b]pyridin-6-yl]isoxazole]
bromodomain
  IC50: < 10 µM
MV-4-11
  IC50: ≤ 1 µM

## Cc1noc(C)c1-c1cnc2c(-c3cn[nH]c3)cn(C(C)c3ccccc3)c2c1 (centres unmarked) [P-0199, 3,5-dimethyl-4-[1-(1-phenylethyl)-3-(1H-pyrazol-4-yl)pyrrolo[3,2-b]pyridin-6-yl]isoxazole]
bromodomain
  IC50: < 10 µM
MV-4-11
  IC50: ≤ 1 µM

## CCn1cc(-c2cn(C(C)c3ccccc3)c3cc(-c4c(C)noc4C)cnc23)cn1 (centres unmarked) [P-0200, 4-[3-(1-ethylpyrazol-4-yl)-1-(1-phenylethyl)pyrrolo[3,2-b]pyridin-6-yl]-3,5-dimethyl-isoxazole]
bromodomain
  IC50: < 10 µM
MV-4-11
  IC50: ≤ 1 µM

## C=CCn1cc(-c2cn(C(C)c3ccccc3)c3cc(-c4c(C)noc4C)cnc23)cn1 (centres unmarked) [P-0201, 4-[3-(1-allylpyrazol-4-yl)-1-(1-phenylethyl)pyrrolo[3,2-b]pyridin-6-yl]-3,5-dimethyl-isoxazole]
bromodomain
  IC50: < 10 µM
MV-4-11
  IC50: ≤ 1 µM

## COCCn1cc(-c2cn(C(C)c3ccccc3)c3cc(-c4c(C)noc4C)cnc23)cn1 (centres unmarked) [P-0203, 4-[3-[1-(2-methoxyethyl)pyrazol-4-yl]-1-(1-phenylethyl)pyrrolo[3,2-b]pyridin-6-yl]-3,5-dimethyl-isoxazole]
bromodomain
  IC50: < 10 µM
MV-4-11
  IC50: ≤ 1 µM

## Cc1noc(C)c1-c1cnc2c(-c3cnn(C4CCOC4)c3)cn(C(C)c3ccccc3)c2c1 (centres unmarked) [P-0204, 3,5-dimethyl-4-[1-(1-phenylethyl)-3-(1-tetrahydrofuran-3-ylpyrazol-4-yl)pyrrolo[3,2-b]pyridin-6-yl]isoxazole]
bromodomain
  IC50: < 10 µM
MV-4-11
  IC50: ≤ 1 µM

## Cc1nn(C)cc1-c1cn(C(C)c2ccccc2)c2cc(-c3c(C)noc3C)cnc12 (centres unmarked) [P-0205, 4-[3-(1,3-dimethylpyrazol-4-yl)-1-(1-phenylethyl)pyrrolo[3,2-b]pyridin-6-yl]-3,5-dimethyl-isoxazole]
bromodomain
  IC50: < 10 µM
MV-4-11
  IC50: ≤ 1 µM

## Cc1noc(C)c1-c1cnc2c(-c3cnn(C)c3)cn(C(C(=O)O)c3ccccc3)c2c1 (centres unmarked) [P-0206, 2-[6-(3,5-dimethylisoxazol-4-yl)-3-(1-methylpyrazol-4-yl)pyrrolo[3,2-b]pyridin-1-yl]-2-phenyl-acetic acid]
bromodomain
  IC50: < 10 µM
MV-4-11
  IC50: 1 to 10 µM

## Cc1noc(C)c1-c1cnc2c(-c3cnn(C)c3)cn(C(C(=O)NC3CC3)c3ccccc3)c2c1 (centres unmarked) [P-0207, N-cyclopropyl-2-[6-(3,5-dimethylisoxazol-4-yl)-3-(1-methylpyrazol-4-yl)pyrrolo[3,2-b]pyridin-1-yl]-2-phenyl-acetamide]
bromodomain
  IC50: < 10 µM
MV-4-11
  IC50: ≤ 1 µM

## Cc1noc(C)c1-c1cnc2c(-c3cnn(C)c3)cn(CC3CCC(F)(F)CC3)c2c1 [P-0209, 4-[1-[(4,4-difluorocyclohexyl)methyl]-3-(1-methylpyrazol-4-yl)pyrrolo[3,2-b]pyridin-6-yl]-3,5-dimethyl-isoxazole]
bromodomain
  IC50: < 10 µM
MV-4-11
  IC50: ≤ 1 µM

## Cc1noc(C)c1-c1cnc2c(-c3cnn(C(F)F)c3)cn(CC3CCC(F)(F)CC3)c2c1 [P-0210, 4-[1-[(4,4-difluorocyclohexyl)methyl]-3-[1-(difluoromethyl)pyrazol-4-yl]pyrrolo[3,2-b]pyridin-6-yl]-3,5-dimethyl-isoxazole]
bromodomain
  IC50: < 10 µM
MV-4-11
  IC50: ≤ 1 µM

## [2H]C([2H])(C1CCC(F)(F)CC1)n1cc(-c2cnn(C)c2)c2ncc(-c3c(C)noc3C)cc21 [P-0211, 4-[1-[dideuterio-(4,4-difluorocyclohexyl)methyl]-3-(1-methylpyrazol-4-yl)pyrrolo[3,2-b]pyridin-6-yl]-3,5-dimethyl-isoxazole]
bromodomain
  IC50: < 10 µM
MV-4-11
  IC50: ≤ 1 µM

## Cc1noc(C)c1-c1cnc2c(-c3cnn(C)c3)cn(CC3(F)CCCCC3)c2c1 [P-0212, 4-[1-[(1-fluorocyclohexyl)methyl]-3-(1-methylpyrazol-4-yl)pyrrolo[3,2-b]pyridin-6-yl]-3,5-dimethyl-isoxazole]
bromodomain
  IC50: < 10 µM
MV-4-11
  IC50: ≤ 1 µM
